Experimental data from the NIST ThermoML archive (doi:10.1016/j.jct.2014.09.005).

Assays:
[1] = xn = mol fraction of the nth substance listed; settings: 101 kPa, Liquid; for viscosity: Capillary tube (Ostwald / Ubbelohde) method; for mass density: Vibrating tube method
[2] = refractive index (Na D-line) (dimensionless); xn = mol fraction of the nth substance listed; settings: 101 kPa, Liquid, Standard Abbe refractometry

NC1CCCCC1 [cyclohexylamine] + CCCCCCCO
Settings	mass density, [1] [kg/m3]	refractive index, [2]	viscosity, [1] [mPa·s]
293.15 K, x2 = 0.1018	863.57	–	2.454
293.15 K, x2 = 0.1499	861.92	1.45459	2.635
293.15 K, x2 = 0.1996	860.22	1.45301	2.838
293.15 K, x2 = 0.2982	856.82	1.44986	3.308
293.15 K, x2 = 0.3979	853.09	1.44669	3.844
293.15 K, x2 = 0.4004	–	1.44661	–
293.15 K, x2 = 0.4465	851.2	1.44519	4.118
293.15 K, x2 = 0.4931	849.3	1.44365	4.381
293.15 K, x2 = 0.5432	847.06	1.44192	4.66
293.15 K, x2 = 0.6008	844.43	1.43985	4.98
293.15 K, x2 = 0.6598	841.57	1.43777	5.267
293.15 K, x2 = 0.6969	–	1.4364	–
293.15 K, x2 = 0.7019	839.35	–	5.475
293.15 K, x2 = 0.7479	836.94	1.43438	5.687
293.15 K, x2 = 0.7967	834.16	1.43236	5.916
293.15 K, x2 = 0.8466	831.39	1.4305	6.158
293.15 K, x2 = 0.8935	828.7	1.42866	6.421
293.15 K, x2 = 0.9432	825.75	1.42665	6.717
298.15 K, x2 = 0.1018	859.27	1.45356	2.178
298.15 K, x2 = 0.1499	857.64	1.45216	2.338
298.15 K, x2 = 0.1996	856.01	1.45053	2.502
298.15 K, x2 = 0.2982	852.71	1.44763	2.892
298.15 K, x2 = 0.3979	849.06	–	3.334
298.15 K, x2 = 0.4004	–	1.44444	–
298.15 K, x2 = 0.4465	–	1.44298	–
298.15 K, x2 = 0.4565	847.21	–	3.558
298.15 K, x2 = 0.4931	845.34	1.44143	3.776
298.15 K, x2 = 0.5432	843.14	1.43977	4.007
298.15 K, x2 = 0.5946	–	1.43797	–
298.15 K, x2 = 0.6008	840.57	–	4.267
298.15 K, x2 = 0.6598	837.76	1.43561	4.478
298.15 K, x2 = 0.7019	835.59	1.43404	4.682
298.15 K, x2 = 0.7479	833.22	1.43244	4.828
298.15 K, x2 = 0.7967	830.49	1.43053	5.057
298.15 K, x2 = 0.8466	827.78	1.42852	5.232
298.15 K, x2 = 0.8935	825.11	1.42666	5.43
298.15 K, x2 = 0.9432	822.21	1.42476	5.673
303.15 K, x2 = 0.1018	854.9	1.45099	1.931
303.15 K, x2 = 0.1499	853.33	1.44958	2.059
303.15 K, x2 = 0.1996	851.74	1.44805	2.204
303.15 K, x2 = 0.2982	848.55	1.4452	2.531
303.15 K, x2 = 0.3979	845	1.44224	2.895
303.15 K, x2 = 0.4465	843.2	1.44068	3.079
303.15 K, x2 = 0.4931	841.35	1.43923	3.258
303.15 K, x2 = 0.5432	839.17	1.43752	3.443
303.15 K, x2 = 0.5946	–	1.43575	–
303.15 K, x2 = 0.6008	836.68	1.43554	3.658
303.15 K, x2 = 0.6598	833.93	1.43355	3.694
303.15 K, x2 = 0.7019	831.8	1.432	4.005
303.15 K, x2 = 0.7479	829.48	1.43042	3.974
303.15 K, x2 = 0.7967	826.8	1.42836	4.317
303.15 K, x2 = 0.8466	824.12	1.42657	4.283
303.15 K, x2 = 0.8935	821.5	1.42455	4.444
303.15 K, x2 = 0.9432	818.64	1.42262	4.626
